Where a name gives a salt, the structure may show the parent alone.
Key:
human ENT1 transporter = molecular target: T1, human ENT1 transporter (Homo sapiens, UniProt Q99808); assay: hENT1-NBMPR-ERYTH binding assay ([3H]NBMPR, human erythrocytes); conditions: [3H]NBMPR 1 nM, washed human red blood cells 1:200, 30 minutes at room temperature; pIC50=-log(IC50); read-out: pIC50 values for ENT1 transporter inhibition (converted)
T1 construct: with washed red blood cells diluted 1:200 in assay buffer; from tissue; host or cells: human erythrocytes (washed red blood cells from whole blood)
T1 sequence (Q99808 1-456): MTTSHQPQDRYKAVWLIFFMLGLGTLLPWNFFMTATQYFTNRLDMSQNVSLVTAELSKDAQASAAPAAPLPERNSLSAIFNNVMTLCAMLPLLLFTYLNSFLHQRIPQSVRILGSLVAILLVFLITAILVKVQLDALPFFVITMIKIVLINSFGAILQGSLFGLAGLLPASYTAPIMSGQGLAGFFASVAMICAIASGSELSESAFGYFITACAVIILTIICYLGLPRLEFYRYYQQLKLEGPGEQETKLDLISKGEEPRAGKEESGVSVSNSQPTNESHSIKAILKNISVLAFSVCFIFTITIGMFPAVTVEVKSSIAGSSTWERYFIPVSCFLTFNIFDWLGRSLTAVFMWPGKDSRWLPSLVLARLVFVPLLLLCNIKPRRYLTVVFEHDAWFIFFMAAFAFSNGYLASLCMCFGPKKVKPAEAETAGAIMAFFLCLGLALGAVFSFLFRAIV
Procedure: D. Pharmacological Data D.1hENT1-NBMPR-ERYTH Assay
The affinity of compounds to the human ENT1 transporter was determined in a binding assay using [^3H]NBMPR (19.9 Ci/mmol) from Moravek Biochemicals (Brea, Calif.). Erythrocytes were isolated from freshly isolated EDTA anti-coagulated human blood. 4 ml human whole blood was diluted in 11 ml wash buffer (20 mM MOPS, 130 mM NaCl, pH 7.4) and centrifuged at 800 g for 5 minutes. Erythrocytes were washed two times with wash buffer by centrifugation at 800 g for 5 minutes and then resuspended in wash buffer to the original whole blood volume and stored at −80° C. Binding experiments were performed at apparent binding equilibrium (30 minutes incubation at room temperature) with washed red blood cells diluted 1:200 in assay buffer (20 mM Tris, 140 mM NaCl, […], 2 mM MgCl2, 0.1 mM EDTA, 5 mM Glucose, pH 7.4) and 1 nM of radioligand. Test compounds were pre-incubated with the red blood cells for 30 minutes at room temperature. Non-specific binding was estimated in the presence of 1 μM Draflazine. The incubation was stopped by rapid filtration using Unifilter-96 GF/C filter plates on a 96-well PerkinElmer Filtermate harvester followed by three washes with ice-cold assay buffer. Bound radioactivity was determined by liquid scintillation counting (Topcount, (PerkinElmer)).

| IC50 (human ENT1 transporter) [nM] | melting point [°C] | SMILES |
| --- | --- | --- |
| 0.589 | – | CC(=O)N1CCC(Oc2cc3c(cc2Cl)CCC2(CCN(CCNC(=O)c4c(Cl)cccc4Cl)CC2)O3)CC1 [Compound 117] |
| 0.776 | – | Cc1cc2c(cc1NC1CCCC1)OC1(CCN(CCNC(=O)c3c(Cl)cccc3Cl)CC1)CC2=O [Compound 127] |
| 0.0447 | – | CC(=O)N1CCC(Oc2cc3c(cc2Cl)C=CC2(CCN(CCNC(=O)c4c(Cl)cccc4Cl)CC2)O3)CC1 [Compound 108] |
| 18.6 | 191.14 | Nc1cc2c(cc1Cl)CCC1(CCN(CCNC(=O)c3c(Cl)cccc3Cl)CC1)O2 [Compound 10] |
| 89.1 | 245.39 | Nc1cc2c(cc1Cl)C(=O)NC1(CCN(CCNC(=O)c3c(Cl)cccc3Cl)CC1)O2 [Compound 1] |
| 11 | – | CN1CCC(Oc2cc3c(cc2Cl)C(=O)NC2(CCN(CCNC(=O)c4c(Cl)cccc4Cl)CC2)O3)CC1 [Compound 26] |
| 9.77 | 236.63 | Nc1ccc2c(c1Cl)OC1(CCN(CCNC(=O)c3c(Cl)cccc3Cl)CC1)CC2=O [Compound 130] |
| 0.343 | – | COC(=O)[C@H]1CC[C@H](Oc2cc3c(cc2C)C(=O)CC2(CCN(CCNC(=O)c4c(Cl)cccc4Cl)CC2)O3)CC1 [Compound 199] |
| 417 | 197.7 to 198.6 | O=C1CC2(CCN(CCNC(=O)c3c(Cl)cccc3Cl)CC2)Oc2ccccc21 [Compound 45] |
| 1.51 | – | O=C1CC2(CCN(CCNC(=O)c3c(Cl)cccc3Cl)CC2)Oc2c1ccc(NC1CCCC1)c2Cl [Compound 208] |
| 120 | 209.19 | O=C1CC2(CCN(CCNC(=O)c3c(Cl)cccc3Cl)CC2)Oc2cc(O)ccc21 [Compound 93] |
| 10.2 | – | O=C1NC2(CCN(CCNC(=O)c3c(Cl)cccc3Cl)CC2)Oc2cc(OC3CCNCC3)c(Cl)cc21 [Compound 23] |
| 89.1 | – | CNCCCNc1cc2c(cc1Cl)C(=O)NC1(CCN(CCNC(=O)c3c(Cl)cccc3Cl)CC1)O2 [Compound 43] |
| 2.57 | 135.95 | Cc1cc(OC2CCCC2)c2c(c1)C(=O)CC1(CCN(CCNC(=O)c3c(Cl)cccc3Cl)CC1)O2 [Compound 189] |
| – | 157.06 | COCCCNc1cc2c(cc1C)C(=O)CC1(CCN(CCNC(=O)c3c(Cl)cccc3Cl)CC1)O2 (as salt: oxalate) [Compound 133] |
| 0.224 | 172.85 | CC(C)(C)OC(=O)N1CCC(Oc2cc3c(cc2Cl)C(=O)NC2(CCN(CCNC(=O)c4c(Cl)cccc4Cl)CC2)O3)CC1 [Compound 22] |

| IC50 (human ENT1 transporter) [nM] | melting point [°C] | SMILES |
| --- | --- | --- |
| 6.46 | – | COCNc1cc2c(cc1Cl)C(=O)NC1(CCN(CCNC(=O)c3c(Cl)cccc3Cl)CC1)O2 [Compound 2] |
| 2.88 | – | Cc1c(O)ccc2c1OC1(CCN(CCNC(=O)c3c(Cl)cccc3Cl)CC1)CC2=O [Compound 91] |
| – | 187.06 | Cc1c(O)ccc2c1OC1(CCN(CCNC(=O)c3c(Cl)cccc3Cl)CC1)CC2=O (as salt: hydrochloric acid salt) [Compound 91] |
| 22.9 | 201.61 to 204.2 | Cc1cccc(C)c1C(=O)NCCN1CCC2(CC1)NC(=O)c1cc(Cl)c(OC(C)C)cc1O2 [Compound 151] |
| 12 | 153.71 to 156.93 | CCCCNc1ccc2c(c1)C(=O)CC1(CCN(CCNC(=O)c3c(Cl)cccc3Cl)CC1)O2 [Compound 97] |
| – | 191.24 | COC(=O)[C@H]1CC[C@H](Oc2cc3c(cc2C)C(=O)CC2(CCN(CCNC(=O)c4c(Cl)cccc4Cl)CC2)O3)CC1 (as salt: oxalate) [Compound 199] |
| 1.82 | – | COCCCNc1cc2c(cc1C)C(=O)CC1(CCN(CCNC(=O)c3c(Cl)cccc3Cl)CC1)O2 [Compound 133] |
| 4.27 | – | CC(C)Nc1ccc2c(c1)OC1(CCN(CCNC(=O)c3c(Cl)cccc3Cl)CC1)NC2=O [Compound 3] |
| 0.776 | 146.87 | CC(=O)N1CCC(Oc2cc3c(cc2Cl)C(=O)NC2(CCN(CCNC(=O)c4c(Cl)cccc4Cl)CC2)O3)CC1 [Compound 27] |
| 0.776 | 238.27 | CC(=O)N1CCC(Nc2cc3c(cc2Cl)C(=O)NC2(CCN(CCNC(=O)c4c(Cl)cccc4Cl)CC2)O3)CC1 [Compound 96] |
| 1.53 | – | CNc1cc2c(cc1Cl)CCC1(CCN(CCNC(=O)c3c(Cl)cccc3Cl)CC1)O2 [Compound 239] |
| 0.531 | – | COC(=O)[C@H]1CC[C@@H](Oc2cc3c(cc2C)C(=O)CC2(CCN(CCNC(=O)c4c(Cl)cccc4Cl)CC2)O3)CC1 [Compound 222] |
| 107 | 245.16 | O=C1NC2(CCN(CCNC(=O)c3c(Cl)cccc3Cl)CC2)Oc2c1cc(Cl)cc2N1CCOCC1 [Compound 205] |
| 3.8 | 238.02 | O=C1NC2(CCN(CCNC(=O)c3c(Cl)cccc3Cl)CC2)Oc2c(NC3CCCC3)cc(Cl)cc21 [Compound 223] |
| 3.72 | – | Cc1cc2c(cc1NCCCO)OC1(CCN(CCNC(=O)c3c(Cl)cccc3Cl)CC1)CC2=O [Compound 141] |
